Test results published in patent US20170049843A1, “Hepatocyte Growth Factor Mimics as Therapeutic Agents” (WASHINGTON STATE UNIVERSITY, priority 2011, published 2017).
Where “and” joins values, the source holds several entries; their conditions need not be identical. Identical values can stand only once. Where a SMILES comes first, the peptide text is derived from it. [ ]: non-standard residue; d: D form. The star is where a group is joined. Nle = CCCC[C@H](N)C(=O)O; Hexanoyl = CCCCCC(=O)*; Ahx = NCCCCCC(=O)O

Legend:
Type in all cases: cell-based, rat
hippocampal neurons [1] = assay: Spinogenesis in mRFP-β-actin transfected dissociated hippocampal neurons; details: 5 days; for spine numbers per 50 μm dendrite length: biologically active doses, printed as 10^−13 M, control 17.4
Experimental: Hippocampal neurons ([…] cells per square cm) were cultured from P1 Sprague Dawley rats on plates coated with poly-L-lysine from Sigma (St. Louis, Mo.; molecular weight 300,000). Hippocampal neurons were maintained in Neurobasal A media from Invitrogen (Carlsbad, Calif.) supplemented with B27 from Invitrogen, 0.5 mM L-glutamine, and […] cytosine-D-arabinofuranoside from Sigma added at 2 days in vitro. Hippocampal neurons were then cultured a further 3-7 days, at which time they were either transfected or treated with various pharmacological reagents as described in (Wayman, Davare et al. 2008).
Neurons were transfected with mRFP-β-actin on day in vitro 6 (DIV6) using LipofectAMINE™ 2000 (Invitrogen) according to the manufacturer's protocol. This protocol yielded the desired 3-5% transfection efficiency thus enabling the visualization of individual neurons. Higher efficiencies obscured the dendritic arbor of individual neurons. Expression of fluorescently tagged actin allowed clear visualization of dendritic spines, as dendritic spines are enriched in actin. On DIV7 the cells were treated with vehicle (H20) or peptides (as described in the text) added to media. On DIV12 the neurons were fixed (4% paraformaldehyde, 3% sucrose, 60 mM PIPES, 25 mM HEPES, 5 mM EGTA, 1 mM MgCl2, pH 7.4) for 20 min at room temperature and mounted. Slides were dried for at least 20 hours at 4° C. and fluorescent images were obtained with Slidebook 4.2 Digital Microscopy Software driving an Olympus IX81 inverted confocal microscope with a 60× oil immersion lens, NA 1.4 and resolution 0.280 μm Dendritic spine density was measured on primary and secondary dendrites at a distance of at least 150 μm from the soma. Five 50 μm long segments of dendrite from at least 10 neurons per data point were analyzed for each data point reported. Each experiment was repeated at least three times using independent culture preparations. Dendrite length was determined using the National Institutes of Health's Image J 1.41o program (NIH, Bethesda, Md.) and the neurite tracing program Neuron J (Meijering, Jacob et al. 2004) Spines were manually counted.
Hippocampal neurons (2×10^5 cells per square centimeter) were cultured from P1-2 Sprague Dawley rats on plates coated with poly-L-lysine from Sigma (St. Louis, Mo.; molecular weight 300,000). Hippocampal neurons were maintained in Neurobasal A media from Invitrogen (Carlsbad, Calif.) supplemented with B27 from Invitrogen, 0.5 mM L-glutamine, and […] cytosine-D-arabinofuranoside from Sigma added at 2 days in vitro. Hippocampal neurons were then cultured a further 3-7 days, at which time they were either transfected or treated with various pharmacological reagents as described in the text or figure legends.

hippocampal neurons [2] = assay: Immunocytochemistry: correlation of spines to synaptic markers (VGLUT1, Synapsin, PSD-95); details: 5 days; for Number of spines/50 μm (PSD-95 staining experiment) / Number of spines/50 μm (Synapsin staining experiment) / Number of spines/50 μm (VGLUT1 staining experiment): 10^−12 M, N=25
Experimental: (§1) Transfected neurons were treated, fixed and stained. Briefly, cells were permeablized with 0.1% Triton X-100 detergent (Bio-Rad; Hercules, Calif.) for 10 minutes. An 8% bovine serum albumin (Intergen Company; Burlington, Mass.) in PBS was used to prevent non-specific binding for one hour at R.T.; Primary antibody incubations were at a 1:2500 dilution (see below) in 1% BSA in PBS at 4° C. overnight. Secondary antibody, 1:3000 Alexafluor 488 goat-anti-mouse (Invitrogen: Carlsbad, Calif.) was applied for two hours at room temperature. Coverslips were mounted with ProLong Gold anti-fade reagent (Invitrogen; Carlsbad, Calif.) and all washes were done with PBS. Imaging and analysis were performed as described above. For presynaptic excitatory transmission the VGLUT1 (Synaptic Systems, Goettingen, Germany) marker (Balschun, Moechars et al.) was employed and for general presynaptic transmission synapsinl (Synaptic Systems, Goettingen, Germany) (Ferreira and Rapoport 2002) was applied. A postsynaptic function was established by PSD-95 (Milipore, Billerica, Mass.) (El-Husseini, Schnell et al. 2000). In each instance the total number of spines was counted for the treatment groups, control, Nle1-AngIV and Dihexa, to ensure an active phenotype. The total number of actin enriched spines adjacent to VGLUT1 or Synapsin were counted and converted to a percentage as the percent correlation of treatment-induced spines to presynaptic markers is a strong indicator of ability to transmit excitatory signals.
as §1, with “fixed and stained as previously described in Chapter two. Briefly, cells” for “fixed and stained. Briefly, cells”, “enriched spines (red) adjacent to” for “enriched spines adjacent to”

CA1 hippocampal neurons = assay: Spinogenesis in organotypic hippocampal slice cultures (CA1 neurons); details: for mean spine numbers per 50 μm dendrite length, CA1 neurons: 10^−12 M Dihexa or 10 ng/ml HGF, 48 hours, control 6.1; for spines per 50 μm dendrite length, CA1 neurons: 10-12 M, 2 day treatment, control 7
Experimental: (§2) Hippocampi from P4 Sprague Dawley rats were cultured as previously described (Wayman, Impey et al. 2006). Briefly, 400 μm slices were cultured on (Milipore, Billerica, Mass.) for 3 days after which they were biolistically transfected with tomato fluorescent protein (TFP) using a Helios Gen Gun (BioRad, Hercules, Calif.), according to the manufacturer's protocol, to visualize dendritic arbors. Following a 24 hour recovery period slices were stimulated with vehicle (H2O), 1 pM Nle1-AngIV or Dihexa for 2 days. Slices were fixed and mounted. Hippocampal CA1 neuronal processes were imaged and measured as described above.
as §2, with “Gene” for “Gen”, “with” for “with vehicle (H2O),”

Molecule	mean spine numbers per 50 μm dendrite length (hippocampal neurons [1]; HGF 5 ng/ml)	mean spine numbers per 50 μm dendrite length (hippocampal neurons [1]; HGF 10 ng/ml)	mean spine numbers per 50 μm dendrite length (hippocampal neurons [1]; HGF 20 ng/ml)	correlation between presynaptic marker Synapsin and postsynaptic spines (hippocampal neurons [2]; HGF 10 ng/ml, vehicle 94%) [%]	mean spine numbers per 50 μm dendrite length, CA1 neurons (CA1 hippocampal neurons)	spine numbers per 50 μm dendrite length (hippocampal neurons [1])	Number of spines/50 μm (PSD-95 staining experiment) (hippocampal neurons [2]) [spines/50 μm]	Number of spines/50 μm (Synapsin staining experiment) (hippocampal neurons [2]) [spines/50 μm]	Number of spines/50 μm (VGLUT1 staining experiment) (hippocampal neurons [2]) [spines/50 μm]	spines per 50 μm dendrite length, CA1 neurons (CA1 hippocampal neurons)
HGF: recombinant hepatocyte growth factor (R&D Systems), ligand of c-Met	24.7	27.5 and 33 and 29.3	27.0	98	18.5					
CCCCCC(=O)N[C@@H](Cc1ccc(O)cc1)C(=O)N[C@H](C(=O)NCCCCCC(N)=O)[C@@H](C)CC [Dihexa, N-hexanoic-Tyr-Ile-(6)-aminohexanoic amide] (Hexanoyl-Tyr-Ile-[Ahx]-NH2)					15.0	26.4	43	37	44	11 spines per 50 μm dendrite length
CCCC[C@H](N)C(=O)N[C@@H](Cc1ccc(O)cc1)C(=O)N[C@H](C(=O)N[C@@H](Cc1c[nH]cn1)C(=O)N1CCC[C@H]1C(=O)N[C@@H](Cc1ccccc1)C(=O)O)[C@@H](C)CC [Nle1-AngIV, reference compound] (H-[Nle]YIHPF-OH; N-terminus and C-terminus assumed)						29.8	36	31	39	11 spines per 50 μm dendrite length
